This note sets out measurements from patent US9820983B2, “Immediate release pharmaceutical compositions comprising oxycodone and naloxone” (Purdue Pharma L.P., priority 2009, dated 2017).

The nature of data set [1]: Single dose bioavailability study of IR OXN 20/10 vs oxycodone IR capsule 20 mg and OXN PR 20/10 (Targin) in healthy subjects (Example 3). The note with it: oral, from the study treatments. The format is in vivo, human.
Description: The study was an open-label, single-dose, 3-treatment, 3-period, randomised crossover. Each subject received single oral doses of IR OXN tablet 20/10 mg, oxycodone IR capsule 20 mg and OXN PR tablet 20/10 mg (Targin®). Subjects received each of the three treatments according to a random allocation schedule (RAS), with at least a 7-day washout period between each dosing.
Subjects attended a screening visit within 21 days of the first dosing day of Study Period 1. Eligible subjects then checked into the study unit on the day before dosing in each study period. Subjects were administered the appropriate study drug in a fasted state the following morning.
Pharmacokinetic blood samples were taken for 36 hours after administration of study drug in each study period, and subjects were discharged after the 36-hour blood sample.
IR OXN tablet 20/10 mg. The treatment was administered orally, in a fasted state, as follows: […]
Log-transformed data for the analytes oxycodone, noroxycodone, oxymorphone, noroxymorphone, naloxone, 6β-naloxol, naloxone-3-glucuronide and 6β-naloxol-3-glucuronide and the pharmacokinetic parameters AUCt, AUCINF and Cmax were analysed using a mixed effect linear model 18, with fixed terms for treatment and period and a random effect for subject.
Treatment ratios/differences and their associated 90% confidence intervals were calculated from the least square means.
The nature of data set [2]: Single dose study of dose proportionality of IR OXN tablets in healthy subjects (Example 2). The format is in vivo, human. The note with it: after IR OXN tablets, particularly with the lower doses.
Excerpt: The study was an open-label, single-dose, 4-treatment, 4-period, randomised crossover study in healthy male and female subjects conducted at a single study centre. […] Subjects received each of the four treatments according to a random allocation schedule (RAS), with at least a 7-day washout period between each dosing.
Subjects attended a screening visit within 21 days of the first dosing day of Study Period 1. Eligible subjects then checked into the study unit on the day before dosing in each study period. Subjects were administered the appropriate study drug in a fasted state the following morning. […]
The following pharmacokinetic parameters were calculated from the plasma concentrations of oxycodone, noroxycodone, oxymorphone, noroxymorphone, naloxone, 6β-naloxol, naloxone-3-glucuronide and 6β-naloxol-3-glucuronide: • Area under the plasma concentration-time curve measured from the time of dosing to the last measurable concentration (AUCt) • Area under the plasma concentration-time curve measured from the time of dosing and extrapolated to infinity (AUCinf) • Maximum observed plasma concentration (Cmax) • Time of maximum observed plasma concentration (tmax) • Terminal phase rate constant (LambdaZ) • Terminal phase half-life (t1/2Z) […]
AUCt values were calculated using the linear trapezoidal method. […]

Consider `C=CCN1CC[C@]23c4c5ccc(O)c4O[C@H]2C(=O)CC[C@@]3(O)[C@H]1C5` [Naloxone, naloxone], for which the bioavailability of naloxone entry in data set [1] is on record as “very low”. Further, the “plasma concentrations of naloxone” value in data set [2] is “extremely low”.
